# Laboratory results published in patent US20260083687A1, “COMPOUNDS FOR REDUCING LACTATION AND IMPROVING HEALTH” (AHV International B.V., priority 2022, published 2026).
# “And” between values parts separate entries of the source, which are not always exact repeats. Equal values may be shown once. Read-outs that look alike come from different tables or passages of the source.
# Columns and labels:
# [1] = tested on: cows (Holstein Friesians); assay: Treatment with DPD analogs (organosulfur compounds) and milk yield (Example 8); format: in vivo, cow; details: for Milk yield (kg) After 24 h / Milk yield (kg) After 48 h / Milk yield (kg) After 72 h / Milk yield (kg) After 96 h / Milk yield (kg) Last milking / Average reduction after 24 and 48 h (%) / average reduction after 24, 48 and 72 h (%) / % reduction after 24 h / % reduction after 48 h / % reduction after 72 h / % reduction after 96 h: individual cows; for Milk yield (kg) After 24 h / Milk yield (kg) After 48 h / Milk yield (kg) After 72 h / Milk yield (kg) After 96 h / Average reduction after 24 and 48 h (%) / average reduction after 24, 48 and 72 h (%) / % reduction after 24 h / % reduction after 48 h / % reduction after 72 h / % reduction after 96 h: dose per compound as listed in E284; for % reduction after 24 h average (milk yield): 24 h after one oral gel capsule; for % reduction after 24 h average (milk yield) / % reduction after 48 h average (milk yield) / % reduction after 72 h average (milk yield) / % reduction after 96 h average (milk yield) / average reduction after 24, 48 and 72 h (%) (milk yield) / Average reduction after 24 and 48 h (%) (milk yield): dose equimolar to 80 ml di-n-propyl disulfide; for % reduction after 24 h average (milk yield) / % reduction after 48 h average (milk yield) / % reduction after 72 h average (milk yield) / % reduction after 96 h average (milk yield): negative value = increase in yield; for % reduction after 48 h average (milk yield): 48 h after one oral gel capsule; for % reduction after 72 h average (milk yield): 72 h after one oral gel capsule; for % reduction after 96 h average (milk yield): 96 h after one oral gel capsule; for average reduction after 24, 48 and 72 h (%) (milk yield): average of 24, 48 and 72 h after one oral gel capsule; for Average reduction after 24 and 48 h (%) (milk yield): average of 24 and 48 h after one oral gel capsule; for Milk yield (kg) Last milking: before administration, single oral gel capsule dose per cow (ml unless g): diethyl disulfide 63, di-n-propyl disulfide 80, diisopropyl disulfide 160, di-n-butyl disulfide 100, dibenzyl disulfide 102, diethyl sulfide 55, di-n-propyl sulfide 72, diisopropyl sulfide 74, di-n-butyl sulfide 90, dibenzyl sulfide 96 g, diphenyl sulfide 85, di-n-propyl trisulfide 98, di-n-propyl sulfone 6; for % reduction after 24 h / % reduction after 48 h / % reduction after 72 h / % reduction after 96 h: vs milk yield before treatment
# Protocol: Study design. 36 cows (Holstein Friesians) from 2 farms were used. The feed of the cows was composed of TMR, including corn and grass silage, supplemented with soya and minerals. […] The cows were milked in a milk robot. […] The cows were milked twice a day. The cows were housed in free stables. […] Placebo treatment corresponded to administration of two gel capsules containing 180 ml water.
# For this study dosages synthetic compounds (>96% purity) as indicated in table 17 were administered to cows. The objective of this study was to compare the activity of a corresponding dose of the compounds expressed in mol, based on the number of moles that is present in 80 ml di-n-propyl disulfide at 20° C. The number of moles was converted to ml or grams of the tested compounds. For this purpose, the molecular weight and specific density were used in the calculations. The compounds were formulated in the gel capsules as indicated in the previous examples.
# Before the various dosages were administered, the milk yields were monitored for at least 5 days.
# [2] = tested on: cows (Holstein Friesians)
# Protocol: Study design. Twelve cows (Holstein Friesians) from 1 farm were used. The start of the dry period of every cow was between 40 to 60 days before calving. The cows were milked twice a day at fixed times and the cows were selected on a milk production of >12.5 litres/day 24 hours before PTS administering took place. […] No extra measures were taken to stimulate dry-off, such as changes in feed ration or changes in milking frequency. The cows were milked twice a day. The cows were housed in free stables. A porcine gelatine capsule with PTS or placebo gel capsule with water were administered 7 to 14 days before the start of the dry-off period.
# For this study various dosages synthetic PTS (>98% purity) were administered to cows with a milk yield of at least 12.5 kg milk per day. The following dosages were applied: 0, 10, 20, 40 ml of pure PTS. For each dosage 2 cows were used.
# Before the various dosages were administered the milk yield was monitored for 14 days. The gel capsules were orally administered by a bolus shooter, the gel capsule for the placebo group contained tap water. Administering of a capsule took place between the morning and afternoon milking. On t=14 days the PTS-containing capsules and the placebo capsules were administered and the milk yield was monitored 48 hours more.
compound,measurement,setting,value
"CCCS(=O)(=O)CCC [Di-n-propyl sulfone, di-n-propyl sulfone]",Milk yield (kg) After 24 h,[1],13.7 kg
same,Milk yield (kg) After 48 h,[1],13.8 kg
same,Milk yield (kg) After 72 h,[1],15.2 kg
same,Milk yield (kg) After 96 h,[1],18.7 kg
"[O-][S+](Cc1ccccc1)SCc1ccccc1 (stereo not shown) [Dibenzyl thiosulfinate, di-benzyl thiosulfinate]",% reduction after 24 h average (milk yield),[1],38%
same,% reduction after 48 h average (milk yield),[1],37%
same,% reduction after 72 h average (milk yield),[1],27.5%
same,% reduction after 96 h average (milk yield),[1],5%
same,"average reduction after 24, 48 and 72 h (%) (milk yield)",[1],34.2%
same,Average reduction after 24 and 48 h (%) (milk yield),[1],37.5%
same,Milk yield (kg) Last milking,[1],30.3 kg and 27.9 kg
same,Average reduction after 24 and 48 h (%),[1],32.5% and 42.5%
same,Milk yield (kg) After 24 h,[1],20.4 kg and 15.6 kg
same,Milk yield (kg) After 48 h,[1],20.7 kg and 15.9 kg
same,Milk yield (kg) After 72 h,[1],24.3 kg and 17.9 kg
same,Milk yield (kg) After 96 h,[1],28.1 kg and 27.3 kg
same,"average reduction after 24, 48 and 72 h (%)",[1],28.5% and 39.7%
same,% reduction after 24 h,[1],33% and 43%
same,% reduction after 48 h,[1],32% and 42%
same,% reduction after 72 h,[1],20% and 35%
same,% reduction after 96 h,[1],7% and 3%
"O=S(=O)(Cc1ccccc1)SCc1ccccc1 [Dibenzyl thiosulfonate, di-benzyl thiosulfonate]",% reduction after 24 h average (milk yield),[1],48%
same,% reduction after 48 h average (milk yield),[1],48%
same,% reduction after 72 h average (milk yield),[1],28%
same,% reduction after 96 h average (milk yield),[1],15%
same,"average reduction after 24, 48 and 72 h (%) (milk yield)",[1],41.3%
same,Average reduction after 24 and 48 h (%) (milk yield),[1],48%
same,Milk yield (kg) Last milking,[1],27.8 kg
same,Average reduction after 24 and 48 h (%),[1],48%
same,Milk yield (kg) After 24 h,[1],14.5 kg
same,Milk yield (kg) After 48 h,[1],14.6 kg
same,Milk yield (kg) After 72 h,[1],19.9 kg
same,Milk yield (kg) After 96 h,[1],23.5 kg
same,"average reduction after 24, 48 and 72 h (%)",[1],41.3%
same,% reduction after 24 h,[1],48%
same,% reduction after 48 h,[1],48%
same,% reduction after 72 h,[1],28%
same,% reduction after 96 h,[1],15%
"CC(C)SSC(C)C [Diisopropyl disulfide, di-isopropyl disulfide]",Milk yield (kg) After 24 h,[1],13.6 kg
same,Milk yield (kg) After 48 h,[1],15.4 kg
same,Milk yield (kg) After 72 h,[1],18.5 kg
same,Milk yield (kg) After 96 h,[1],19.5 kg
"CCCS[S+]([O-])CCC (stereo not shown) [PTS, di-n-propyl thiosulfinate]",% reduction after 24 h average (milk yield),[1],45%
same,% reduction after 48 h average (milk yield),[1],44%
same,% reduction after 72 h average (milk yield),[1],23%
same,% reduction after 96 h average (milk yield),[1],10%
same,"average reduction after 24, 48 and 72 h (%) (milk yield)",[1],37%
same,Average reduction after 24 and 48 h (%) (milk yield),[1],45%
same,Milk yield (kg) Last milking,[1],28.6 kg and 32.7 kg
same,Average reduction after 24 and 48 h (%),[1],49% and 40%
same,Milk yield (kg) After 24 h,[1],14.5 kg and 19.4 kg
same,Milk yield (kg) After 48 h,[1],14.9 kg and 20 kg
same,Milk yield (kg) After 72 h,[1],23.4 kg and 23.9 kg
same,Milk yield (kg) After 96 h,[1],27.2 kg and 27.8 kg
same,"average reduction after 24, 48 and 72 h (%)",[1],39% and 35.7%
same,% reduction after 24 h,[1],49% and 40%
same,% reduction after 48 h,[1],48% and 39%
same,% reduction after 72 h,[1],18% and 27%
same,% reduction after 96 h,[1],5% and 15%
same,effect on milk yield compared to the milk yield before treatment,[2]; 20 ml PTS,clear lowering on milk yield
same,effect on milk yield/day,[2]; 40 and 60 ml PTS,visible
same,Milk yield,"[2]; 40 ml PTS given after last milking on day 0, day 0, individual cows",32.4 kg and 28.4 kg
same,Milk yield,"[2]; 40 ml PTS given on day 0, day 1, individual cows",22.4 kg and 21.9 kg
same,Milk yield,"[2]; 40 ml PTS given on day 0, day 2, individual cows",24.4 kg and 23.4 kg
same,Milk yield,"[2]; 40 ml PTS given on day 0, day 3, individual cows",28.9 kg and 26.4 kg
same,Milk yield,"[2]; 40 ml PTS given on day 0, day 4, individual cows",32.2 kg and 27.1 kg
same,Milk yield,"[2]; 40 ml PTS given on day 0, day 5, individual cows",31.2 kg and 28.2 kg
same,Milk yield,"[2]; 40 ml PTS given on day 0, day 6, individual cows",32.0 kg and 28.3 kg
same,Milk yield,"[2]; 40 ml PTS given on day 0, day −1, individual cows",31.9 kg and 27.7 kg
same,Milk yield,"[2]; 40 ml PTS given on day 0, day −2, individual cows",32.2 kg and 28.9 kg
same,Milk yield,"[2]; 40 ml PTS given on day 0, day −3, individual cows",33.3 kg and 28.1 kg
same,Milk yield,"[2]; 40 ml PTS given on day 0, day −4, individual cows",31.9 kg and 28.5 kg
same,Milk yield,"[2]; 40 ml PTS given on day 0, day −5, individual cows",31.4 kg and 27.9 kg
same,Milk yield,"[2]; 40 ml PTS given on day 0, day −6, individual cows",33.2 kg and 28.3 kg
same,Average milking/day of last 7 days before administration,"[2]; 40 ml PTS, individual cows",32.3 kg and 28.3 kg
same,% reduction after 24 h,"[2]; 40 ml PTS, individual cows",31% and 23%
same,% reduction after 48 h,"[2]; 40 ml PTS, individual cows",24% and 17%
same,% reduction after 72 h,"[2]; 40 ml PTS, individual cows",11% and 7%
same,Average reduction 24 and 48 h (%),"[2]; 40 ml PTS, individual cows",28% and 20%
same,Milk yield After 24 h,"[2]; 40 ml PTS, individual cows",22.4 kg and 21.9 kg
same,Milk yield After 48 h,"[2]; 40 ml PTS, individual cows",24.4 kg and 23.4 kg
same,Milk yield After 72 h,"[2]; 40 ml PTS, individual cows",28.9 kg and 26.4 kg
same,Milk yield After 96 h,"[2]; 40 ml PTS, individual cows",32.2 kg and 27.1 kg
same,Milk yield After 120 h,"[2]; 40 ml PTS, individual cows",31.2 kg and 28.2 kg
same,Milk yield,"[2]; 60 ml PTS given after last milking on day 0, day 0, individual cows",32.4 kg and 29.3 kg
same,Milk yield,"[2]; 60 ml PTS given on day 0, day 1, individual cows",19.4 kg and 14.5 kg
same,Milk yield,"[2]; 60 ml PTS given on day 0, day 2, individual cows",20.0 kg and 14.9 kg
same,Milk yield,"[2]; 60 ml PTS given on day 0, day 3, individual cows",23.9 kg and 23.4 kg
same,Milk yield,"[2]; 60 ml PTS given on day 0, day 4, individual cows",27.8 kg and 27.2 kg
same,Milk yield,"[2]; 60 ml PTS given on day 0, day 5, individual cows",31.6 kg and 28.3 kg
same,Milk yield,"[2]; 60 ml PTS given on day 0, day 6, individual cows",32.2 kg and 27.4 kg
same,Milk yield,"[2]; 60 ml PTS given on day 0, day −1, individual cows",32.2 kg and 28.1 kg
same,Milk yield,"[2]; 60 ml PTS given on day 0, day −2, individual cows",33.2 kg and 28.3 kg
same,Milk yield,"[2]; 60 ml PTS given on day 0, day −3, individual cows",31.9 kg and 27.4 kg
same,Milk yield,"[2]; 60 ml PTS given on day 0, day −4, individual cows",33.5 kg and 29.6 kg
same,Milk yield,"[2]; 60 ml PTS given on day 0, day −5, individual cows",32.4 kg and 28.3 kg
same,Milk yield,"[2]; 60 ml PTS given on day 0, day −6, individual cows",33.4 kg and 28.9 kg
same,Average milking/day of last 7 days before administration,"[2]; 60 ml PTS, individual cows",28.6 kg and 32.7 kg
same,% reduction after 24 h,"[2]; 60 ml PTS, individual cows",51% and 40%
same,% reduction after 48 h,"[2]; 60 ml PTS, individual cows",48% and 39%
same,% reduction after 72 h,"[2]; 60 ml PTS, individual cows",18% and 27%
same,% reduction after 96 h,"[2]; 60 ml PTS, individual cows",5% and 15%
same,Average reduction 24 and 48 h (%),"[2]; 60 ml PTS, individual cows",50% and 40%
same,Milk yield After 24 h,"[2]; 60 ml PTS, individual cows",14.5 kg and 19.4 kg
same,Milk yield After 48 h,"[2]; 60 ml PTS, individual cows",14.9 kg and 20 kg
same,Milk yield After 72 h,"[2]; 60 ml PTS, individual cows",23.4 kg and 23.9 kg
same,Milk yield After 96 h,"[2]; 60 ml PTS, individual cows",27.2 kg and 27.8 kg
same,Milk yield After 120 h,"[2]; 60 ml PTS, individual cows",28.3 kg and 31.6 kg
same,time to recovery of milk yield after administration,[2]; PTS,3 to 4 days
same,damage to the udder,"[2]; bovine, in vivo",does not reduce milk yield because of damaging the udder
di-isopropyl thiosulfonate [Diisopropyl thiosulfonate],% reduction after 24 h average (milk yield),[1],28%
same,% reduction after 48 h average (milk yield),[1],26%
same,% reduction after 72 h average (milk yield),[1],9%
same,% reduction after 96 h average (milk yield),[1],0%
same,"average reduction after 24, 48 and 72 h (%) (milk yield)",[1],21%
same,Average reduction after 24 and 48 h (%) (milk yield),[1],27%
same,Milk yield (kg) Last milking,[1],28.9 kg
same,Average reduction after 24 and 48 h (%),[1],27%
same,Milk yield (kg) After 24 h,[1],20.8 kg
same,Milk yield (kg) After 48 h,[1],21.4 kg
same,Milk yield (kg) After 72 h,[1],26.3 kg
same,Milk yield (kg) After 96 h,[1],28.8 kg
same,"average reduction after 24, 48 and 72 h (%)",[1],21%
same,% reduction after 24 h,[1],28%
same,% reduction after 48 h,[1],26%
same,% reduction after 72 h,[1],9%
same,% reduction after 96 h,[1],0%
